Experiment [1] addresses T1, bovine rod (Brod) CNG channel, α homomultimer (Bos taurus, UniProt Q00194).
T1 sequence (Q00194 1-690): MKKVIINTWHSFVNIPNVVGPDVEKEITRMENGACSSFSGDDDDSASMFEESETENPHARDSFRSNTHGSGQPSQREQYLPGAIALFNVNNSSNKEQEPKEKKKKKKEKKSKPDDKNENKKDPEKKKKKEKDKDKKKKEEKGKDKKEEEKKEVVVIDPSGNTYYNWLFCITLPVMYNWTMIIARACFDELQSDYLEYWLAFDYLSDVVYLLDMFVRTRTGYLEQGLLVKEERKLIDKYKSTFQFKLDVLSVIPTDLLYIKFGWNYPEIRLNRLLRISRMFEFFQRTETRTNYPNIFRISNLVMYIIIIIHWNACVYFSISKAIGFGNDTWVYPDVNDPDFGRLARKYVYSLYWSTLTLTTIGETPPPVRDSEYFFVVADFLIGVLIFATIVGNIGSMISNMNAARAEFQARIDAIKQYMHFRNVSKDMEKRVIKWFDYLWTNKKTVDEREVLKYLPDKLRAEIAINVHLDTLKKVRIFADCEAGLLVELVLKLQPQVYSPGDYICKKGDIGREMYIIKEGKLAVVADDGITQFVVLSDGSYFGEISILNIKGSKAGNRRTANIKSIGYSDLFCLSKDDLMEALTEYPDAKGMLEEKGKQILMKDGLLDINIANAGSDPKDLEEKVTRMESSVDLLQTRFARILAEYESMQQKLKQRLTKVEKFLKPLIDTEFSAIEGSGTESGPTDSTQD
It counts as cell-based. As to conditions: for Hill coefficient n of cGMP activation: six patches.

The target of another experiment is T2, Rolf G204W CNG channel (Rattus norvegicus, UniProt Q00195, G204W).
T2 sequence (Q00195 1-664 G204W): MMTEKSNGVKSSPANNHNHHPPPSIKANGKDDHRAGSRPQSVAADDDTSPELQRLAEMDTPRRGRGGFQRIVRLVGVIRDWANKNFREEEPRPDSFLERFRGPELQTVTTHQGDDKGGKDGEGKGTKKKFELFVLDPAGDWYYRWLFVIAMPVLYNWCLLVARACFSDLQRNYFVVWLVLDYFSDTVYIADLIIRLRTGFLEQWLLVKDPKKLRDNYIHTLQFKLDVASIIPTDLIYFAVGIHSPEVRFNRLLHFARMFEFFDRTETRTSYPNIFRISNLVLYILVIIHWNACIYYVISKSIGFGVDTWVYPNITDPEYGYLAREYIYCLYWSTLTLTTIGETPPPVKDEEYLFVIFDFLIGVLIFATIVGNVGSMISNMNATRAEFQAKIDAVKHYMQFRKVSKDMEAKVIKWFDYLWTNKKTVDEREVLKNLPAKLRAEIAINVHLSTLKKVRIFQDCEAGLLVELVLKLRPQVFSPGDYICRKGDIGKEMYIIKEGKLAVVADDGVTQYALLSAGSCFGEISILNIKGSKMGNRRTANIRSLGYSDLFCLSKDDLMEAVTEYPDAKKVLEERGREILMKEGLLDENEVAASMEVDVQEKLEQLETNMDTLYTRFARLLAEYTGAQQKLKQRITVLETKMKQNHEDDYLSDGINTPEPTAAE
Format: cell-based.

Another experiment concerns the target T3, Rolf G204D CNG channel (Rattus norvegicus, UniProt Q00195, G204D).
T3 sequence (Q00195 1-664 G204D): T2 sequence (Q00195 1-664 G204W) with W204D
It counts as cell-based.

Experiment [2] concerns the target T1, bovine rod (Brod) CNG channel, α homomultimer. As to conditions: saturating 2 mM cGMP, ref Crary et al. 2000; cited from earlier work.
Experiment [3] concerns the target T4, rat olfactory (Rolf) CNG channel, α homomultimer (Rattus norvegicus, UniProt Q00195).
T4 sequence (Q00195 1-664): T2 sequence (Q00195 1-664 G204W) with W204G
As to conditions: saturating 100 μM cGMP, ref Crary et al. 2000; cited from earlier work.

Setting [4] is: read-out: Percent inhibition by tetracaine.

Where a chain is given by its changes, count along the chain named. Where two headings read alike, the source gives them in different places.

For the compound `CCCCNc1ccc(C(=O)OCCN(C)C)cc1` [Tetracaine, tetracaine], the inhibition at 40 µM was 94.1% in experiment [1] (setting [4]) and 100% at Rolf G204W CNG channel (setting [4]). The concentration for half-maximal inhibition (IC50) at Rolf G204W CNG channel was determined as 2.2 µM; on Rolf G204D CNG channel it was 10.8 µM.

For `Nc1nc2c(ncn2[C@@H]2O[C@@H]3COP(=O)(O)O[C@H]3[C@H]2O)c(=O)[nH]1` [cGMP], in experiment [1] (Brod, 10 μM cGMP, +100 mV), the “I/Imax of cGMP-activated current” value stood at 0.20. Moreover, the “Hill coefficient n of cGMP activation” value was determined as 2.0 in experiment [1] (Brod, +100 mV); 2.0 in experiment [1] (Brod, −100 mV); 1.7 at Rolf G204W CNG channel (Rolf G204W, averaged six patches, +100 mV); 1.7 on Rolf G204W CNG channel (Rolf G204W, averaged six patches, −100 mV); 2.0 at Rolf G204W CNG channel (Rolf G204W, single patch, +100 mV); 2.0 on Rolf G204W CNG channel (Rolf G204W, single patch, −100 mV). The EC50 on Rolf G204W CNG channel (read-out: cGMP K1/2 (half-maximal activation), Rolf G204W, +100 mV, averaged data from six patches) was 14 µM; on Rolf G204W CNG channel (read-out: cGMP K1/2, Rolf G204W, single patch, +100 mV), 14 µM; at Rolf G204W CNG channel (read-out: cGMP K1/2, Rolf G204W, single patch, −100 mV) it was 18 µM.

With diacylglycerol [DAG], the “decrease of maximal current by DAG” value in experiment [1] (Brod, 1.5 μM DAG, saturating 2 mM cGMP) is above 80%. Moreover, in experiment [1] (Brod, saturating cGMP), the “DAG concentration that fully suppresses cGMP-activated currents” value was around 3 µM. Further, the “DAG maximal percent inhibition (INmax)” value on Rolf G204W CNG channel (Rolf G204W, 2 mM cGMP) is 100%; in experiment [2], 100%; in experiment [3] it was 31%. The “Hill coefficient n of DAG inhibition” value is on record as 3.2 on Rolf G204W CNG channel (Rolf G204W, 2 mM cGMP) and 1.7 in experiment [2].

For orientation: inhibition means the percentage by which the read-out fell short of the control. As usually defined, the IC50 is the midpoint of a concentration-inhibition curve. High values mean a need for much substance, low ones inhibition by little substance.

These data come from PMC2231820 (The Journal of General Physiology, 2000).
